In ChEMBL document CHEMBL3885861, “Open TG-GATES”:

Species on record: Rattus norvegicus
Assay: Open TG-GATES - Regimen: Single
Format: toxicity, organism-based, Sprague-Dawley
Design: regimen Single, gender Male, age 6 weeks
Details: in vivo, po, route gavage; for APTT / Bas / Eos / Fbg / Hb / Ht / Lym / MCH / MCHC / MCV / Mono / Neu / PT / Plat / RBC / Ret / WBC: tissue Blood; for KIDNEY_L / KIDNEY_R / KIDNEY_TOTAL: tissue Kidney; for LIVER: tissue Liver; for A/G / ALP / ALT / AST / BUN / CRE / Ca / Cl / DBIL / GLC / IP / K / LDH / Na / PL / RALB / TBIL / TC / TG / TP / gamma-GTP: tissue Plasma
[1] = 150 mg/kg, 3 h, dose level Middle
[2] = 150 mg/kg, 6 h, dose level Middle
[3] = 150 mg/kg, 9 h, dose level Middle
[4] = 150 mg/kg, 24 h, dose level Middle
[5] = 500 mg/kg, 3 h, dose level High
[6] = 500 mg/kg, 6 h, dose level High
[7] = 500 mg/kg, 9 h, dose level High
[8] = 500 mg/kg, 24 h, dose level High

## CN1C(=O)CCS(=O)(=O)C1c1ccc(Cl)cc1 (centres undefined) [CHLORMEZANONE]
[1]
  TERMINAL_BW: 230 g
  APTT: 15.9 s
  Bas: 0%
  Eos: 1%
  Fbg: 314.4 mg/dL
  Hb: 13.5 g/dL
  Ht: 39.4%
  Lym: 77%
  MCH: 21.7 pg
  MCHC: 34.1%
  MCV: 63.6 fL
  Mono: 2.8%
  Neu: 18.4%
  PT: 13.1 s
  Plat: 123.1 x10_4/uL
  RBC: 620.2 x10_4/ul
  Ret: 7.9%
  WBC: 84.3 x10_2/uL
  KIDNEY_L: 1 g
  KIDNEY_R: 1 g
  KIDNEY_TOTAL: 1.9 g
  LIVER: 10.6 g
  A/G: 0.9
  ALP: 1400.8 IU/L
  ALT: 49.6 IU/L
  AST: 75.6 IU/L
  BUN: 11.6 mg/dL
  CRE: 0.2 mg/dL
  Ca: 11.6 mg/dL
  Cl: 104.2 meq/L
  DBIL: 0.018 mg/dL
  GLC: 182.2 mg/dL
  IP: 9.5 mg/dL
  K: 4.3 meq/L
  LDH: 56.8 IU/L
  Na: 140.6 meq/L
  PL: 157.6 mg/dL
  RALB: 2.6 g/dL
  TBIL: 0.034 mg/dL
  TC: 87 mg/dL
  TG: 95.6 mg/dL
  TP: 5.6 g/dL
  gamma-GTP: 1 IU/L
[2]
  TERMINAL_BW: 229.6 g
  APTT: 17.8 s
  Bas: 0%
  Eos: 0.6%
  Fbg: 295 mg/dL
  Hb: 13.8 g/dL
  Ht: 41.1%
  Lym: 77.8%
  MCH: 22.1 pg
  MCHC: 33.6%
  MCV: 65.8 fL
  Mono: 3.8%
  Neu: 16.8%
  PT: 13.6 s
  Plat: 119.1 x10_4/uL
  RBC: 624.4 x10_4/ul
  Ret: 8.5%
  WBC: 70.9 x10_2/uL
  KIDNEY_L: 1 g
  KIDNEY_R: 1 g
  KIDNEY_TOTAL: 2 g
  LIVER: 10.1 g
  A/G: 0.9
  ALP: 1441.2 IU/L
  ALT: 41.6 IU/L
  AST: 71.8 IU/L
  BUN: 9.2 mg/dL
  CRE: 0.2 mg/dL
  Ca: 11.7 mg/dL
  Cl: 105.6 meq/L
  DBIL: 0.014 mg/dL
  GLC: 184.2 mg/dL
  IP: 11.2 mg/dL
  K: 4.5 meq/L
  LDH: 61.4 IU/L
  Na: 142.8 meq/L
  PL: 152 mg/dL
  RALB: 2.7 g/dL
  TBIL: 0.038 mg/dL
  TC: 76 mg/dL
  TG: 57.2 mg/dL
  TP: 5.7 g/dL
  gamma-GTP: 1.6 IU/L
[3]
  TERMINAL_BW: 228.1 g
  APTT: 14 s
  Bas: 0%
  Eos: 0.6%
  Fbg: 329.4 mg/dL
  Hb: 13.1 g/dL
  Ht: 38.8%
  Lym: 74.2%
  MCH: 21.8 pg
  MCHC: 33.8%
  MCV: 64.4 fL
  Mono: 2.8%
  Neu: 21.2%
  PT: 13.3 s
  Plat: 118.2 x10_4/uL
  RBC: 603 x10_4/ul
  Ret: 8%
  WBC: 89.8 x10_2/uL
  KIDNEY_L: 1 g
  KIDNEY_R: 1 g
  KIDNEY_TOTAL: 1.9 g
  LIVER: 9 g
  A/G: 0.9
  ALP: 1520.8 IU/L
  ALT: 38.6 IU/L
  AST: 70.6 IU/L
  BUN: 9.8 mg/dL
  CRE: 0.2 mg/dL
  Ca: 11.3 mg/dL
  Cl: 105 meq/L
  DBIL: 0.02 mg/dL
  GLC: 194.6 mg/dL
  IP: 11.2 mg/dL
  K: 4 meq/L
  LDH: 55.8 IU/L
  Na: 142.8 meq/L
  PL: 150.2 mg/dL
  RALB: 2.6 g/dL
  TBIL: 0.04 mg/dL
  TC: 78.4 mg/dL
  TG: 67.2 mg/dL
  TP: 5.5 g/dL
  gamma-GTP: 1.4 IU/L
[4]
  TERMINAL_BW: 227.1 g
  APTT: 17.4 s
  Bas: 0%
  Eos: 1%
  Fbg: 271.6 mg/dL
  Hb: 13.4 g/dL
  Ht: 39.4%
  Lym: 77%
  MCH: 21.9 pg
  MCHC: 34.1%
  MCV: 64.2 fL
  Mono: 3.4%
  Neu: 17.8%
  PT: 13.3 s
  Plat: 123.4 x10_4/uL
  RBC: 615.2 x10_4/ul
  Ret: 7.5%
  WBC: 94.1 x10_2/uL
  KIDNEY_L: 1 g
  KIDNEY_R: 1 g
  KIDNEY_TOTAL: 2 g
  LIVER: 10.9 g
  A/G: 0.9
  ALP: 1673.6 IU/L
  ALT: 50.4 IU/L
  AST: 82.4 IU/L
  BUN: 15.6 mg/dL
  CRE: 0.2 mg/dL
  Ca: 11.4 mg/dL
  Cl: 105.4 meq/L
  DBIL: 0.022 mg/dL
  GLC: 192 mg/dL
  IP: 7.6 mg/dL
  K: 4.2 meq/L
  LDH: 69.4 IU/L
  Na: 142 meq/L
  PL: 138.4 mg/dL
  RALB: 2.6 g/dL
  TBIL: 0.028 mg/dL
  TC: 79.8 mg/dL
  TG: 119 mg/dL
  TP: 5.6 g/dL
  gamma-GTP: 1 IU/L
[5]
  TERMINAL_BW: 225.7 g
  APTT: 17.2 s
  Bas: 0%
  Eos: 1%
  Fbg: 308.4 mg/dL
  Hb: 13.4 g/dL
  Ht: 40.2%
  Lym: 72.8%
  MCH: 21.9 pg
  MCHC: 33.4%
  MCV: 65.4 fL
  Mono: 3.8%
  Neu: 21.8%
  PT: 13.2 s
  Plat: 113.8 x10_4/uL
  RBC: 614.4 x10_4/ul
  Ret: 8.6%
  WBC: 42.6 x10_2/uL
  KIDNEY_L: 1 g
  KIDNEY_R: 1 g
  KIDNEY_TOTAL: 2 g
  LIVER: 9.8 g
  A/G: 0.9
  ALP: 1556.6 IU/L
  ALT: 41.2 IU/L
  AST: 63.6 IU/L
  BUN: 9.6 mg/dL
  CRE: 0.1 mg/dL
  Ca: 10.8 mg/dL
  Cl: 102 meq/L
  DBIL: 0.012 mg/dL
  GLC: 212.4 mg/dL
  IP: 10.3 mg/dL
  K: 3.9 meq/L
  LDH: 54.2 IU/L
  Na: 140.8 meq/L
  PL: 145 mg/dL
  RALB: 2.5 g/dL
  TBIL: 0.038 mg/dL
  TC: 76.4 mg/dL
  TG: 63.6 mg/dL
  TP: 5.3 g/dL
  gamma-GTP: 1 IU/L
[6]
  TERMINAL_BW: 226.3 g
  APTT: 16.7 s
  Bas: 0%
  Eos: 1%
  Fbg: 340.6 mg/dL
  Hb: 13.2 g/dL
  Ht: 39.2%
  Lym: 72.6%
  MCH: 21.2 pg
  MCHC: 33.8%
  MCV: 62.7 fL
  Mono: 2.6%
  Neu: 23.4%
  PT: 13.6 s
  Plat: 111.4 x10_4/uL
  RBC: 625.4 x10_4/ul
  Ret: 8.1%
  WBC: 28.5 x10_2/uL
  KIDNEY_L: 0.9 g
  KIDNEY_R: 0.9 g
  KIDNEY_TOTAL: 1.9 g
  LIVER: 9.9 g
  A/G: 0.9
  ALP: 1317.4 IU/L
  ALT: 44 IU/L
  AST: 66.8 IU/L
  BUN: 8 mg/dL
  CRE: 0.1 mg/dL
  Ca: 10.8 mg/dL
  Cl: 101.2 meq/L
  DBIL: 0.006 mg/dL
  GLC: 218.4 mg/dL
  IP: 10.6 mg/dL
  K: 3.6 meq/L
  LDH: 56.4 IU/L
  Na: 139.6 meq/L
  PL: 160 mg/dL
  RALB: 2.5 g/dL
  TBIL: 0.03 mg/dL
  TC: 93.2 mg/dL
  TG: 39.6 mg/dL
  TP: 5.4 g/dL
  gamma-GTP: 1 IU/L
[7]
  TERMINAL_BW: 229 g
  APTT: 16.4 s
  Bas: 0%
  Eos: 0.6%
  Fbg: 317.8 mg/dL
  Hb: 13.4 g/dL
  Ht: 39.2%
  Lym: 68.8%
  MCH: 21.9 pg
  MCHC: 34.2%
  MCV: 64 fL
  Mono: 2.8%
  Neu: 27.6%
  PT: 13.6 s
  Plat: 127.7 x10_4/uL
  RBC: 613 x10_4/ul
  Ret: 8.1%
  WBC: 40.7 x10_2/uL
  KIDNEY_L: 1 g
  KIDNEY_R: 1 g
  KIDNEY_TOTAL: 1.9 g
  LIVER: 10.1 g
  A/G: 0.9
  ALP: 1555.8 IU/L
  ALT: 39.8 IU/L
  AST: 66 IU/L
  BUN: 10 mg/dL
  CRE: 0.1 mg/dL
  Ca: 11 mg/dL
  Cl: 100.4 meq/L
  DBIL: 0.014 mg/dL
  GLC: 255.4 mg/dL
  IP: 10.3 mg/dL
  K: 3.8 meq/L
  LDH: 66.4 IU/L
  Na: 139 meq/L
  PL: 165.8 mg/dL
  RALB: 2.6 g/dL
  TBIL: 0.034 mg/dL
  TC: 90.6 mg/dL
  TG: 89.8 mg/dL
  TP: 5.5 g/dL
  gamma-GTP: 1.2 IU/L
[8]
  TERMINAL_BW: 214.2 g
  APTT: 21.3 s
  Bas: 0%
  Eos: 0.6%
  Fbg: 258.6 mg/dL
  Hb: 14.2 g/dL
  Ht: 40.4%
  Lym: 73.4%
  MCH: 21.7 pg
  MCHC: 35.2%
  MCV: 61.9 fL
  Mono: 4%
  Neu: 21.8%
  PT: 14.3 s
  Plat: 121 x10_4/uL
  RBC: 653.6 x10_4/ul
  Ret: 7.3%
  WBC: 73.2 x10_2/uL
  KIDNEY_L: 0.9 g
  KIDNEY_R: 0.9 g
  KIDNEY_TOTAL: 1.9 g
  LIVER: 9.7 g
  A/G: 0.8
  ALP: 1746 IU/L
  ALT: 46.2 IU/L
  AST: 89.6 IU/L
  BUN: 14.2 mg/dL
  CRE: 0.2 mg/dL
  Ca: 11.2 mg/dL
  Cl: 104.6 meq/L
  DBIL: 0.048 mg/dL
  GLC: 193.2 mg/dL
  IP: 8 mg/dL
  K: 3.9 meq/L
  LDH: 113 IU/L
  Na: 142 meq/L
  PL: 146.2 mg/dL
  RALB: 2.6 g/dL
  TBIL: 0.058 mg/dL
  TC: 69.6 mg/dL
  TG: 239.2 mg/dL
  TP: 5.8 g/dL
  gamma-GTP: 1 IU/L
